Measurements as given in patent US6346543B1, “Use of a taxoid to treat abnormal cell proliferation in the brain” (priority 1998, dated 2002).
“And” between values parts separate entries of the source, which are not always exact repeats. Identical values can stand only once.

Key:
[1] = system: intracranially implanted human glioblastoma U251; test: Antitumor activity against intracranially implanted U251 glioblastoma in NCr-nu mice (RP-36); type: in vivo; conditions: for DAYS OF DEATH: individual animals
Procedure: The treatment schedule of the intracranially implanted U251 glioblastoma cells was iv, once daily, every sixth day for three treatments (q6d×3), beginning on day four post-implant. […] For the intracranially implanted studies, the compounds were evaluated based on their ability to increase the life span of the animals. The positive control used for both of these tumor models was nitrosourea.
The oversight committee was the Southern Research Institutional Animal Care and Use Committee; the protocol used was IACUC No. 96-8-50.
(§1) Product (Ia) was prepared in 5% ethanol, 5% tween 80, 90% D5W
(§2) Product (Ia) was administered in 0.4 ml/mouse based on a total body weight average.
(§3) Nitrosourea was administered 0.1 ml/10 g of body weight.
(§4) Any intracranially implanted animal that appeared to be moribund was euthanized for humane purposes. Since efficacy studies fall within this category of basic research, experiment termination was based on resultants that were determined to be optimal.
Six to eight week old athymic NCr-nu female mice were used for the intracranially implanted U251 trials.
The cells were injected into the cerebrum to the right of the midline with a 25 gauge, ⅜ inch, stainless steel needle. Cultured cells were used for the U251 experiment (RP-36). The treatment schedule was q6d×3, iv, beginning on day four, post-implant. […] The treatment schedule was q4d×3, iv, beginning on day two, post-implant. Nitrosourea was given in each experiment for comparative purposes because of its known activity against CNS tumors.

[2] = system: intracranially implanted human glioblastoma SF-295; test: Antitumor activity against intracranially implanted SF-295 glioblastoma in NCr-nu mice (RP-38); type: in vivo; conditions: for DAYS OF DEATH: individual animals
Description: Four studies were initiated to evaluate the response of U251 and SF-295 glioblastomas to treatment with product (Ia). In the two studies, U251 and SF-295 glioblastomas were initiated from intracranially implanted cells at a volume of 10^6 cells per mouse. The treatment schedule of the intracranially implanted U251 glioblastoma cells was iv, once daily, every sixth day for three treatments (q6d×3), beginning on day four post-implant. The treatment schedule of the intracranially implanted SF-295 glioblastoma cells was iv, once daily, every fourth day for three treatments (q4d×3), beginning on day two post-implant. For the intracranially implanted studies, the compounds were evaluated based on their ability to increase the life span of the animals. The positive control used for both of these tumor models was nitrosourea.
In these experiments, general DCTD, NCI techniques and procedures for in vivo efficacy studies were modified for special application (In Vivo Cancer Models, NIH Publication No. 84-2635, 1984). These studies were conducted in approved facilities (AAALAC Registration No. 000643, AALAS Membership No. 840723001, USDA Registration No. 64-R-001, OPPR, PHS, NIH, AWA, Assurance No. A3046-01). These facilities are ISO 9001 certified. The oversight committee was the Southern Research Institutional Animal Care and Use Committee; the protocol used was IACUC No. 96-8-50.
as §1
Nitrosourea was prepared in 2% ethanol, 98% physiological saline.
as §2, §3, §4
Six to eight week old athymic NCr-nu female mice were used for the intracranially implanted U251 trials. Six to eight week old athymic NCr-nu male mice were used for the intracranially implanted SF-295 trials.
As previously mentioned, this experiment was designed to evaluate the activity of product (Ia) against intracranially U251 and SF-295 glioblastomas in athymic MCr-nu mice. The dosages for product (Ia) were 30, 20 and 13.4 mg/kg/dose. For the two intracranially implanted experiments, cells were prepared at a concentration of 3.33×10^7 cells per ml of media and injected at a volume of 0.03 ml per mouse. The cells were injected into the cerebrum to the right of the midline with a 25 gauge, ⅜ inch, stainless steel needle. Cultured cells were used for the U251 experiment (RP-36). The treatment schedule was q6d×3, iv, beginning on day four, post-implant. A tumor brei, made from solid tumor, was used for the SF-295 experiment (RP-38). The treatment schedule was q4d×3, iv, beginning on day two, post-implant. Nitrosourea was given in each experiment for comparative purposes because of its known activity against CNS tumors. The dosages were 27, 18 and 12 mg/kg/dose and the treatment schedule was the same as the treatment schedule for product (Ia) in each experiment.

[3] = 13.4 mg/kg/dose IV Q6D×3(4), listed as Product I(a)
[4] = 13.4 mg/kg/dose IV Q6D×3(4), listed as product (Ia)
[5] = 20.0 mg/kg/dose IV Q6D×3(4), listed as Product I(a)
[6] = 20.0 mg/kg/dose IV Q6D×3(4), listed as product (Ia)
[7] = 30.0 mg/kg/dose IV Q6D×3(4), listed as Product I(a)
[8] = 30.0 mg/kg/dose IV Q6D×3(4), listed as product (Ia)
[9] = 13.4 mg/kg/dose IV Q4D×3(2), listed as product (Ia)

SMILES: CO[C@H]1C(=O)[C@]2(C)[C@@H](OC)C[C@H]3OC[C@@]3(OC(C)=O)[C@H]2[C@H](OC(=O)c2ccccc2)[C@]2(O)C[C@H](OC(=O)[C@H](O)[C@@H](NC(=O)OC(C)(C)C)c3ccccc3)C(C)=C1C2(C)C [Product (Ia), 4α-acetoxy-2α-benzoyloxy-5β, 20-epoxy-1β-hydroxy-7β, 10β-dimethoxy-9-oxo-11-taxen-13α-yl (2R,3S)-3 tert-butoxycarbonylamino-2-hydroxy-3-phenylpropionate]
- MEDIAN DAY OF DEATH ([1]; 13.4 mg/kg/dose IV Q6D×3(4)): 83.0 days
- DAYS OF DEATH ([1]; 13.4 mg/kg/dose IV Q6D×3(4)): 69 day (2×) and 83 day (4×) and 122 day
- 122-DAY SURV./TOTAL [1, 3]: 3/10
- % ILS [1, 3]: +144%
- 122-DAY SURV./TOTAL [1, 4]: three of ten
- % ILS [1, 4]: 144%
- MEDIAN DAY OF DEATH ([1]; 20.0 mg/kg/dose IV Q6D×3(4)): 103.0 days
- DAYS OF DEATH ([1]; 20.0 mg/kg/dose IV Q6D×3(4)): 58 day and 98 day and 100 day and 106 day (2×) and 122 day
- 122-DAY SURV./TOTAL [1, 5]: 4/10
- % ILS [1, 5]: +202%
- 122-DAY SURV./TOTAL [1, 6]: four of ten
- % ILS [1, 6]: 202%
- MEDIAN DAY OF DEATH ([1]; 30.0 mg/kg/dose IV Q6D×3(4)): 94.0 days
- DAYS OF DEATH ([1]; 30.0 mg/kg/dose IV Q6D×3(4)): 21 days and 34 days and 94 days and 98 days and 103 days
- 122-DAY SURV./TOTAL [1, 7]: 5/10
- % ILS [1, 7]: +176%
- 122-DAY SURV./TOTAL [1, 8]: five of ten
- % ILS [1, 8]: 176%
- activity against intracranially implanted U251 glioblastoma ([1]; iv q6d×3): quite active
- MTD ([1]; iv q6d×3, U251 experiment RP-36): 20 mg/kg/dose
- 68 DAY SURV./TOTAL ([2]; 13.4 mg/kg/dose IV Q4D×3(2)): 1/10
- % ILS ([2]; 13.4 mg/kg/dose IV Q4D×3(2)): +81%
- MEDIAN DAY OF DEATH ([2]; 13.4 mg/kg/dose IV Q4D×3(2)): 29.0 days
- MEAN ANIMAL WEIGHT ([2]; 13.4 mg/kg/dose IV Q4D×3(2), day 2): 25 GRAMS
- MEAN ANIMAL WEIGHT ([2]; 13.4 mg/kg/dose IV Q4D×3(2), day 5): 24 GRAMS
- MEAN ANIMAL WEIGHT ([2]; 13.4 mg/kg/dose IV Q4D×3(2), day 8): 23 GRAMS
- MEAN ANIMAL WEIGHT ([2]; 13.4 mg/kg/dose IV Q4D×3(2), day 13): 22 GRAMS
- MEAN ANIMAL WEIGHT ([2]; 13.4 mg/kg/dose IV Q4D×3(2), day 15): 20 GRAMS
- MEAN ANIMAL WEIGHT ([2]; 13.4 mg/kg/dose IV Q4D×3(2), day 19): 21 GRAMS
- MEAN ANIMAL WEIGHT ([2]; 13.4 mg/kg/dose IV Q4D×3(2), day 22): 22 GRAMS
- MEAN ANIMAL WEIGHT ([2]; 13.4 mg/kg/dose IV Q4D×3(2), day 26): 21 GRAMS
- MEAN ANIMAL WEIGHT ([2]; 13.4 mg/kg/dose IV Q4D×3(2), day 29): 22 GRAMS
- MEAN ANIMAL WEIGHT ([2]; 13.4 mg/kg/dose IV Q4D×3(2), day 33): 22 GRAMS
- MEAN ANIMAL WEIGHT ([2]; 13.4 mg/kg/dose IV Q4D×3(2), day 37): 26 GRAMS
- MEAN ANIMAL WEIGHT ([2]; 13.4 mg/kg/dose IV Q4D×3(2), day 40): 22 GRAMS
- MEAN ANIMAL WEIGHT ([2]; 13.4 mg/kg/dose IV Q4D×3(2), day 43): 27 GRAMS
- DAYS OF DEATH ([2]; 13.4 mg/kg/dose IV Q4D×3(2)): 34 day and 41 day and 25 day (2×) and 29 day (3×) and 30 day and 32 day
- 68 DAY SURV./TOTAL [2, 9]: one 68-day survivor out of ten animals
- % ILS [2, 9]: 81%
- mean weight loss through the treatment period ([2]; 20 mg/kg dose iv q4d×3): 6 g
- 68 DAY SURV./TOTAL ([2]; 20.0 mg/kg/dose IV Q4D×3(2)): 0/10
- % ILS ([2]; 20.0 mg/kg/dose IV Q4D×3(2)): +94%
- MEDIAN DAY OF DEATH ([2]; 20.0 mg/kg/dose IV Q4D×3(2)): 31.0 days
- MEAN ANIMAL WEIGHT ([2]; 20.0 mg/kg/dose IV Q4D×3(2), day 2): 25 GRAMS
- MEAN ANIMAL WEIGHT ([2]; 20.0 mg/kg/dose IV Q4D×3(2), day 5): 24 GRAMS
- MEAN ANIMAL WEIGHT ([2]; 20.0 mg/kg/dose IV Q4D×3(2), day 8): 21 GRAMS
- MEAN ANIMAL WEIGHT ([2]; 20.0 mg/kg/dose IV Q4D×3(2), day 13): 19 GRAMS
- MEAN ANIMAL WEIGHT ([2]; 20.0 mg/kg/dose IV Q4D×3(2), day 15): 18 GRAMS
- MEAN ANIMAL WEIGHT ([2]; 20.0 mg/kg/dose IV Q4D×3(2), day 19): 19 GRAMS
- MEAN ANIMAL WEIGHT ([2]; 20.0 mg/kg/dose IV Q4D×3(2), day 22): 21 GRAMS
- MEAN ANIMAL WEIGHT ([2]; 20.0 mg/kg/dose IV Q4D×3(2), day 26): 22 GRAMS
- MEAN ANIMAL WEIGHT ([2]; 20.0 mg/kg/dose IV Q4D×3(2), day 29): 19 GRAMS
- MEAN ANIMAL WEIGHT ([2]; 20.0 mg/kg/dose IV Q4D×3(2), day 33): 23 GRAMS
- MEAN ANIMAL WEIGHT ([2]; 20.0 mg/kg/dose IV Q4D×3(2), day 37): 29 GRAMS
- MEAN ANIMAL WEIGHT ([2]; 20.0 mg/kg/dose IV Q4D×3(2), day 40): 29 GRAMS
- MEAN ANIMAL WEIGHT ([2]; 20.0 mg/kg/dose IV Q4D×3(2), day 43): 29 GRAMS
- DAYS OF DEATH ([2]; 20.0 mg/kg/dose IV Q4D×3(2)): 33 day (2×) and 37 day and 54 day and 13 day (2×) and 16 day and 31 day (3×)
- % ILS ([2]; 20.0 mg/kg/dose IV Q4D×3(2), listed as product (Ia)): 94%
- mean weight loss through the treatment period ([2]; 30 mg/kg dose iv q4d×3): 7 g
- 68 DAY SURV./TOTAL ([2]; 30.0 mg/kg/dose IV Q4D×3(2)): 0/10
- % ILS ([2]; 30.0 mg/kg/dose IV Q4D×3(2)): −9%
- MEDIAN DAY OF DEATH ([2]; 30.0 mg/kg/dose IV Q4D×3(2)): 14.5 days
- MEAN ANIMAL WEIGHT ([2]; 30.0 mg/kg/dose IV Q4D×3(2), day 2): 25 GRAMS
- MEAN ANIMAL WEIGHT ([2]; 30.0 mg/kg/dose IV Q4D×3(2), day 5): 23 GRAMS
- MEAN ANIMAL WEIGHT ([2]; 30.0 mg/kg/dose IV Q4D×3(2), day 8): 18 GRAMS
- MEAN ANIMAL WEIGHT ([2]; 30.0 mg/kg/dose IV Q4D×3(2), day 13): 18 GRAMS
- MEAN ANIMAL WEIGHT ([2]; 30.0 mg/kg/dose IV Q4D×3(2), day 15): 19 GRAMS
- MEAN ANIMAL WEIGHT ([2]; 30.0 mg/kg/dose IV Q4D×3(2), day 19): 19 GRAMS
- MEAN ANIMAL WEIGHT ([2]; 30.0 mg/kg/dose IV Q4D×3(2), day 22): 21 GRAMS
- MEAN ANIMAL WEIGHT ([2]; 30.0 mg/kg/dose IV Q4D×3(2), day 26): 21 GRAMS
- MEAN ANIMAL WEIGHT ([2]; 30.0 mg/kg/dose IV Q4D×3(2), day 29): 19 GRAMS
- MEAN ANIMAL WEIGHT ([2]; 30.0 mg/kg/dose IV Q4D×3(2), day 33): 20 GRAMS
- MEAN ANIMAL WEIGHT ([2]; 30.0 mg/kg/dose IV Q4D×3(2), day 37): 18 GRAMS
- MEAN ANIMAL WEIGHT ([2]; 30.0 mg/kg/dose IV Q4D×3(2), day 40): 21 GRAMS
- MEAN ANIMAL WEIGHT ([2]; 30.0 mg/kg/dose IV Q4D×3(2), day 43): 17 GRAMS
- DAYS OF DEATH ([2]; 30.0 mg/kg/dose IV Q4D×3(2)): 40 day and 41 day and 47 day and 11 day and 13 day (2×) and 14 day (2×) and 15 day and 30 day
- activity against intracranially implanted SF-295 glioblastoma ([2]; iv q4d×3): quite active
- MTD ([2]; iv q4d×3, SF-295 experiment RP-38): 13.4 mg/kg/dose
